Non-standard residues stand in square brackets, D forms with d. Residues, ends and D or L forms follow the SMILES beside them. *: point of attachment. Sta = CC(C)C[C@H](N)[C@@H](O)CC(=O)O; Isovaleryl = CC(C)CC(=O)*; Cbz = O=C(OCc1ccccc1)*; CH2F = FC*
Assays:
[1] = tested on: SK-Mel-103 melanoma cells; test: GFP-LC3 foci fluorescence analysis of autophagy; format: cell-based, human; details: with BO-110 treatment, 12 h
Protocol: An eGFP-LC3 fusion cloned into the pCNA expression vector was a gift from Gabriel Nidiez (University of Michigan Cancer Center). eGFP-LC3 and the fragments eGFP-Rab7wt, eGFP-Rab7 T22N, eGFP-Rab5wt, eGFP-Cherry-LC3 and Cherry-LC3 were cloned into the pLVO-puro lentiviral vector for stable gene transfer. […] GFP-LC3-associated fluorescence emission was imaged using a LEICA™ AF6000 fluorescence microscope and images were analyzed by LAS AF V1.9 (Leica, Solms, Germany). For confocal real time microscopy, we used a LEICA™ TCS-SP2-AOBS-UV ultra-spectral microscope coupled to a CO2 and temperature-controlled incubation chamber. Images were analyzed by LCS (Leica, Solms, Germany). […] Co-localization images were analyzed with LAS AF V1.9 (Leica, Solms, Germany).
To address the role of autophagy in the response of melanoma to drugs, a discriminative analysis based in GFP-LC3 was used to screen commercially available chemotherapeutic drugs and immunomodulators. Melanoma cells were stably transfected with lentiviral vectors expressing derivatives of the autophagosomal LC3 marker with GFP, such as pLVO-eGFP-LC3.
Subsequent validation studies were performed on a panel of human cell lines of diverse genetic background (see below).

[2] = tested on: SK-Mel-147; test: Cell death by trypan blue exclusion, SK-Mel-147; format: cell-based, human; details: for effect of antioxidant on cell death by BO-110: BO-110 plus ROS scavenger
[3] = tested on: SK-Mel-28; test: Cell death by trypan blue exclusion, SK-Mel-28; format: cell-based, human; details: doxorubicin 0.5 μg/ml, 30 h
Protocol: (§1) Cell viability assays in response to drug treatments were done after seeding melanocytes and melanoma cells at least 12 hours before drug treatment. The percentage of cell death at the indicated times and treatment concentrations was estimated by standard trypan blue exclusion assays as previously described (Wolter et al., 2007; Fernández et al., 2005).

[4] = tested on: SK-Mel-19; test: Cell death by trypan blue exclusion, SK-Mel-19; format: cell-based, human; details: doxorubicin 0.5 μg/ml, 30 h
Protocol: as §1

[5] = tested on: SK-Mel-103; test: Cell death by trypan blue exclusion, SK-Mel-103; format: cell-based, human
[6] = tested on: MDA-5; test: MDA-5 proteolytic cleavage by immunoblotting; format: cell-based, human; details: SK-Mel-28 and SK-Mel-147 cell extracts
Protocol: This analysis was carried out by immunoblotting extracts from SK-Mel-28 and SK-Mel-147 cells treated with PEI, pIC or BO-110, after subjecting these extracts to electrophoresis. As a positive control for efficient induction of cell death bortezomib was used.

[7] = tested on: MCL-1; test: MCL-1 protein levels by immunoblotting; format: cell-based, human; details: melanoma cells
Protocol: To determine changes in protein levels, 2×10^6 cells were treated as indicated and harvested at different times after treatment. Total cell lysates were subjected to electrophoresis in 10, 12 or 4-15% gradient SDS gels under reducing conditions, and subsequently transferred to IMMOBILON-P® (0.45 um pore size hydrophobic polyvinylidene fluoride, PVDF) membranes (Millipore, Bedford, Mass., USA). Protein bands were detected by the ECL system (GE Healthcare, Buckinghamshire, UK).
Secondary antibodies were either anti-mouse or anti-rabbit from GE Healthcare. Image J was used to quantify changes in proteins levels induced by the different treatments, considering untreated controls as reference for basal expression.
To assess similarities and differences between bortezomib and pIC (naked or complexed with PEI), melanoma cells were incubated with each of these compounds and extracts were collected at different time points after treatment to assess the levels of NOXA, MCL-1, and other Bcl-2 family members (Bcl-xL or Bcl-2). Results are shown in FIGS. 9A, 9B, 9C, 9D, 9E, and 9F.

[8] = tested on: NOXA; test: NOXA protein levels by immunoblotting and densitometry; format: cell-based, human; details: SK-Mel-28 or SK-Mel-147 melanoma cells
[9] = tested on: SK-Mel-103 cells; test: Confocal microscopy of autolysosomes, lysosomal activity and endosomes; format: cell-based, human
From the text: An eGFP-LC3 fusion cloned into the pCNA expression vector was a gift from Gabriel Nidiez (University of Michigan Cancer Center). eGFP-LC3 and the fragments eGFP-Rab7wt, eGFP-Rab7 T22N, eGFP-Rab5wt, eGFP-Cherry-LC3 and Cherry-LC3 were cloned into the pLVO-puro lentiviral vector for stable gene transfer. Melanoma derived cells (i.e., SK-Mel-103) were infected with pLVO-eGFP-LC3 and selected with puromycin. GFP-LC3-associated fluorescence emission was imaged using a LEICA™ AF6000 fluorescence microscope and images were analyzed by LAS AF V1.9 (Leica, Solms, Germany). […] Images were analyzed by LCS (Leica, Solms, Germany). […] Co-localization images were analyzed with LAS AF V1.9 (Leica, Solms, Germany). […]
To independently monitor lysosomal activity during BO-110 treatment, cells were tested for the ability to process DQ-BSA (a derivative of BSA whose green fluorescence is quenched unless cleaved by proteolytic enzymes). […] Note that DQ-BSA emission was detected at the lysosomes, as indicated by colocalization with LYSOTRACKER® Red, a dye whose cell permeability is pH dependent and emits red fluorescence when incorporated into functional lysosomes acids). […]
Having determined that autophagosomes fuse to active lysosomes in response to BO-110, we assessed whether these organelles interacted with or were recruited to endosomes.

[10] = tested on: IFIT-1; test: IFIT-1 mRNA by quantitative PCR, B16 melanoma cells; format: cell-based, mouse
Protocol: (§2) Human interferon alpha was measured in culture supernatants by enzyme-linked immunoabsorbent assay (ELISA). The human IFN-α ELISA Kit and recombinant hIFN-α were purchased from PBL Interferon Source (Piscataway, N.Y.) and used according to the manufacturer's protocol. IFN-α expression level was measured from bone-marrow-derived macrophages (BMDMs) and B16 melanoma cells by real-time PCR. BMDMs were prepared, plated and treated as previously described (Celada et al., 1984). Real-time quantitative PCR analysis of IFIT-1 RNA transcripts was performed using TAQMAN® primer and probes obtained from Applied Biosystems on an Applied Biosystems 7700 sequence detector after normalization with […].
(§3) pIC is a classical inducer of IFN-driven cellular immunity (Wenzel et al., 2008). […] To assess this possibility, B16 melanoma cells and macrophages were tested for their ability to secrete and respond to IFN-α. […] This is expected, as these cells can efficiently sense viral dsRNA.

[11] = tested on: IFIT-1; test: IFIT-1 mRNA by quantitative PCR, bone-marrow-derived macrophages; format: cell-based
Protocol: as §2, §3

[12] = tested on: melanoma; details: naked pIC, clinical studies (Robinson et al., 1976); cited from earlier work
[13] = tested on: SK-Mel-103 cells; test: Ultrastructural analysis by transmission electron microscopy; format: cell-based, human; details: 5-12 h after treatment
Protocol: For transmission electron microscopy (TEM), the indicated cell populations were rinsed with […] buffer, pH 7.5 and fixed in 2.5% glutaraldehyde for 1.5 h, and subsequently dehydrated and embedded in Spurr's resin. Then, the block was sectioned at 60-100 nm ultra thin sections and picked up on copper grids. For routine analysis ultrathin sections were stained with 2% uranyl acetate and lead citrate. Electron micrographs were acquired with a Philips CM-100 transmission electron microscope (FEI, Hillsbrough, Oreg.) and a KODAK™ 1.6 MEGAPLUS™ digital camera.
The GFP-LC3 focal staining in cells treated with BO-110 described in the previous paragraph is consistent with the formation of autophagosomes. However, to rule out possible unspecific aggregations of ectopically expressed GFP-LC3 (Klionsky et al., 2008), the response was analyzed independently by electron microscopy (FIG. 1D).

[14] = tested on: melanoma cell lines (SK-Mel-19, -28, -103, -147, and B16); test: Cell death by trypan blue exclusion, melanoma cell lines; format: cell-based, human and murine; details: naked pIC versus PEI-complexed pIC
Protocol: as §1
With these lines, tests were conducted similar to those described in Example 1 for SK-Mel-103 cell line, to verify the sensitivity of each of these cells to pIC and PEI as independent agents or used in combination.

[15] = 20 hours after treatment with BO-110

Q: With `Cn1cnc(N)c2ncnc1-2` [3-MA, 3-methyladenine] as the compound, how does the “effect of autophagy inhibitor on GFP-LC3 foci / autophagosomes induced by BO-110” value [1] read?
A: The value was “blocked GFP-LC3 foci formation by BO-110”.

Q: What does the source list for `COc1cccc2c1C(=O)c1c(O)c3c(c(O)c1C2=O)C[C@@](O)(C(=O)CO)C[C@@H]3O[C@H]1C[C@H](N)[C@H](O)[C@H](C)O1` [DOX, doxorubicin]?
A: DOX: response to doxorubicin, percentage of cell death ([2]; SK-Mel-147, doxorubicin 0.5 μg/ml, 30 h): − (<30%); DOX: response to doxorubicin, percentage of cell death [3]: − (<30%); DOX: response to doxorubicin, percentage of cell death [4]: ++ (100-70); DOX: response to doxorubicin, percentage of cell death ([5]; SK-Mel-103, doxorubicin 0.5 μg/ml, 30 h): − (<30%)

Q: For `CCOC(=O)[C@H]1O[C@@H]1C(=O)N[C@@H](CC(C)C)C(=O)NCCC(C)C` [E64d], which “reduction of the extent of cell death by BO-110” value [5, 15] is on record?
A: Its value is 50%.

Q: With `O=S(=O)([O-])c1cc(O)c(O)c(S(=O)(=O)[O-])c1.[Na+].[Na+]` [TIRON™] as the compound, how does the “effect of antioxidant on cell death by BO-110” value (“effect of antioxidant” for short) [2] read?
A: Its value is “no significant effects”.

Q: For `Cc1c(C)c2c(c(C)c1O)CCC(C)(C(=O)O)O2` (stereo not drawn) [TROLOX™], which “effect of antioxidant” value [2] is on record?
A: Its value is “no significant effects”.

Q: With `CC(C)C[C@H](NC(=O)[C@H](Cc1ccccc1)NC(=O)c1cnccn1)B(O)O` [bortezomib, Bortezomib] as the compound, how does the “induction of MDA-5 processing (30 kD band)” value [6] read?
A: The value was “no effect on MDA-5 levels or processing”.

Q: What about the MCL-1 levels [7] of the same compound?
A: The MCL-1 levels was “induces a simultaneous accumulation of MCL-1”.

Q: What about the “NOXA induction (in words)” value [8] of the same compound?
A: Its value is “activates NOXA potently”.

Q: What does the source list for `CCN(CC)CCCC(C)Nc1ccnc2cc(Cl)ccc12` (stereo not drawn) [chloroquine, Chloroquine]?
A: effect of autophagy inhibitor on GFP-LC3 foci / autophagosomes induced by BO-110 [1]: autophagosomes accumulated; inhibitory effect on cell death triggered by BO-110 [5, 15]: blocked melanoma cell death triggered by BO-110; lysosomal proteolysis: DQ-BSA cleavage [9]: minimum of fluorescence emission due to DQ-BSA

Q: With `CC(C)CC(=O)N[C@H](C(=O)N[C@H](C(=O)N[C@@H](CC(C)C)[C@@H](O)CC(=O)N[C@@H](C)C(=O)N[C@@H](CC(C)C)[C@@H](O)CC(=O)O)C(C)C)C(C)C` [pepstatin A] (Isovaleryl-VV[Sta]A[Sta]-OH) as the compound, how does the “reduction of the extent of cell death by BO-110” value [5, 15] read?
A: The value was 50%.

Q: For `COC(=O)C[C@H](NC(=O)[C@H](C)NC(=O)[C@@H](NC(=O)OCc1ccccc1)C(C)C)C(=O)CF` [z-VAD-fmk] (Cbz-Val-Ala-Asp(OMe)-CH2F), which “inhibition of BO-110 killing” value ([2]; SK-Mel-147, BO-110 plus pan-caspase inhibitor) is on record?
A: Its value is 70%.

Q: With IFN-α as the compound, how does the “effect on melanoma cell viability” value ([5]; high doses, 10 times over levels secreted after BO-110, 24 h) read?
A: The value was “unable to affect melanoma cell viability”.

Q: With polyinosine-polycytidylic acid [pIC] as the compound, how does the “induction of IFN target IFIT-1” value [10] read?
A: The value was “unable to induce IFIT-1”.

Q: And the “induction of IFN target IFIT-1” value [11]?
A: Its value is “PEI was dispensable for pIC-mediated induction of IFN targets”.

Q: And the “induction of MDA-5 processing (30 kD band)” value [6]?
A: Its value is “significantly lower levels”.

Q: What about the “antitumoral effect for melanoma” value [12] of the same compound?
A: The value was “absence of antitumoral effect for melanoma”.

Q: And the “induction of IFN” value [12]?
A: The value was “low induction of IFN”.

Q: What about the stability [12] of the same compound?
A: Its stability is “low stability”.

Q: What about the “autophagosome formation (electron microscopy)” value [13] of the same compound?
A: The value was “minimal activity as inducer of autophagy”.

Q: And the “NOXA induction (in words)” value [8]?
A: The value was “failed to induce NOXA consistently or in a sustained manner”.

Q: And the “reduction of antimelanoma activity of pIC when PEI was not included” value [14]?
A: Its value is 70-80%.

Q: For vitamin E, which “effect of antioxidant” value [2] is on record?
A: Its value is “no significant effects”.
